Results as given in ChEMBL document CHEMBL1201862, “PubChem BioAssay data set” (2004).
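Grown in 96-well plates, cells were treated for 48 hours with each compound at five concentrations. Insufficient inhibition: endpoint recorded as highest concentration tested. Here, GI50 denotes the concentration required for 50% inhibition of growth.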 Active and inactive are the calls of the source. Cut-off read from the data, not from the text of the source: active = GI50 up to about 1.1 µM and inactive = higher.

Experiments:
Experiment in all cases: inhibition of tumour cell growth, NCI panel, 48 h
SF-539 = system: SF-539
BT-549 = system: BT-549
CCRF-CEM = system: CCRF-CEM
SNB-75 = system: SNB-75
DU-145 = system: DU-145
OVCAR-4 = system: OVCAR-4
UACC-62 = system: UACC-62
SF-268 = system: SF-268
SR = system: SR
TK-10 = system: TK-10
MOLT-4 = system: MOLT-4
MDA-MB-231 = system: MDA-MB-231
OVCAR-3 = system: OVCAR-3
NCI-H460 = system: NCI-H460
UO-31 = system: UO-31
Malme-3M = system: Malme-3M
NCI-H23 = system: NCI-H23
NCI-H522 = system: NCI-H522
PC-3 = system: PC-3
CAKI-1 = system: CAKI-1
UACC-257 = system: UACC-257
NCI-H226 = system: NCI-H226
HCT-116 = system: HCT-116
SK-MEL-28 = system: SK-MEL-28
COLO 205 = system: COLO 205
LOX IMVI = system: LOX IMVI
IGROV-1 = system: IGROV-1
ACHN = system: ACHN
RPMI-8226 = system: RPMI-8226
786-0 = system: 786-0
SK-OV-3 = system: SK-OV-3
SN12C = system: SN12C
Hs-578T = system: Hs-578T
SW-620 = system: SW-620
SF-295 = system: SF-295
M14 = system: M14
A549 = system: A549
HOP-92 = system: HOP-92
MCF7 = system: MCF7
OVCAR-5 = system: OVCAR-5
K562 = system: K562
HCC 2998 = system: HCC 2998
HT-29 = system: HT-29
EKVX = system: EKVX
KM12 = system: KM12
MDA-MB-435 = system: MDA-MB-435
MDA-N = system: MDA-N
OVCAR-8 = system: OVCAR-8
NCI/ADR-RES = system: NCI/ADR-RES
HOP-62 = system: HOP-62
U-251 = system: U-251
HCT-15 = system: HCT-15
SNB-19 = system: SNB-19
SK-MEL-2 = system: SK-MEL-2
HL-60 = system: HL-60
A498 = system: A498
T47D = system: T47D
RXF 393 = system: RXF 393
SK-MEL-5 = system: SK-MEL-5

Nc1ccc2ccc(N3CCNCC3)nc2n1
GI50 (SF-539): 71.3 µM (inactive) | GI50 (BT-549): 65.8 µM (inactive) | GI50 (CCRF-CEM): 31.6 µM (inactive) | GI50 (SNB-75): > 100 µM (inactive) | GI50 (DU-145): > 100 µM (inactive) | GI50 (OVCAR-4): 57.7 µM (inactive) | GI50 (UACC-62): 59.2 µM (inactive) | GI50 (SF-268): 44.7 µM (inactive) | GI50 (SR): 33.4 µM (inactive) | GI50 (TK-10): > 100 µM (inactive) | GI50 (MOLT-4): 32.4 µM (inactive) | GI50 (MDA-MB-231): 37.3 µM (inactive) | GI50 (OVCAR-3): 17.9 µM (inactive) | GI50 (NCI-H460): 44 µM (inactive) | GI50 (UO-31): 50.4 µM (inactive) | GI50 (Malme-3M): 38.9 µM (inactive) | GI50 (NCI-H23): 56.8 µM (inactive) | GI50 (NCI-H522): 45.3 µM (inactive) | GI50 (PC-3): 44.7 µM (inactive) | GI50 (CAKI-1): > 100 µM (inactive) | GI50 (UACC-257): > 100 µM (inactive) | GI50 (NCI-H226): 21.4 µM (inactive) | GI50 (HCT-116): 43.2 µM (inactive) | GI50 (SK-MEL-28): > 100 µM (inactive) | GI50 (COLO 205): 49.1 µM (inactive) | GI50 (LOX IMVI): > 100 µM (inactive) | GI50 (IGROV-1): 19.5 µM (inactive) | GI50 (ACHN): 74.8 µM (inactive) | GI50 (RPMI-8226): 84.3 µM (inactive) | GI50 (786-0): 61.7 µM (inactive) | GI50 (SK-OV-3): 83.9 µM (inactive) | GI50 (SN12C): 51.2 µM (inactive) | GI50 (Hs-578T): 47.5 µM (inactive) | GI50 (SW-620): 47.6 µM (inactive) | GI50 (SF-295): 39.9 µM (inactive) | GI50 (M14): 55.1 µM (inactive) | GI50 (A549): > 100 µM (inactive) | GI50 (HOP-92): 46 µM (inactive) | GI50 (MCF7): 70 µM (inactive) | GI50 (OVCAR-5): 32.4 µM (inactive) | GI50 (K562): 50.8 µM (inactive) | GI50 (HCC 2998): 44.2 µM (inactive) | GI50 (HT-29): 33.7 µM (inactive) | GI50 (EKVX): 74.1 µM (inactive) | GI50 (KM12): 48.2 µM (inactive) | GI50 (MDA-MB-435): 49.7 µM (inactive) | GI50 (MDA-N): 75 µM (inactive) | GI50 (OVCAR-8): > 100 µM (inactive) | GI50 (NCI/ADR-RES): > 100 µM (inactive) | GI50 (HOP-62): 23.9 µM (inactive) | GI50 (U-251): 80.2 µM (inactive) | GI50 (HCT-15): 76.6 µM | GI50 (SNB-19): 42.2 µM (inactive) | GI50 (SK-MEL-2): 35.1 µM (inactive) | GI50 (HL-60): 34 µM (inactive)

S=c1nc(N/N=C/c2cccs2)c2cn[nH]c2[nH]1
GI50 (SF-539): 50.2 µM (inactive) | GI50 (BT-549): > 100 µM (inactive) | GI50 (SNB-75): 97.7 µM (inactive) | GI50 (DU-145): 34.8 µM (inactive) | GI50 (OVCAR-4): 31.5 µM (inactive) | GI50 (UACC-62): 25.4 µM (inactive) | GI50 (SF-268): 38 µM (inactive) | GI50 (SR): 11.8 µM (inactive) | GI50 (A498): 4.02 µM (inactive) | GI50 (TK-10): 17.9 µM (inactive) | GI50 (MOLT-4): 14 µM (inactive) | GI50 (MDA-MB-231): 28.1 µM (inactive) | GI50 (OVCAR-3): 9.25 µM (inactive) | GI50 (NCI-H460): 0.134 µM (active) | GI50 (UO-31): > 100 µM (inactive) | GI50 (Malme-3M): 41.4 µM (inactive) | GI50 (NCI-H23): 21.2 µM (inactive) | GI50 (NCI-H522): 27.3 µM (inactive) | GI50 (PC-3): 15.1 µM (inactive) | GI50 (CAKI-1): 14.8 µM (inactive) | GI50 (T47D): 23.7 µM (inactive) | GI50 (UACC-257): 35.7 µM (inactive) | GI50 (NCI-H226): 92 µM (inactive) | GI50 (HCT-116): 16.2 µM (inactive) | GI50 (SK-MEL-28): 46.7 µM (inactive) | GI50 (COLO 205): 6.87 µM (inactive) | GI50 (LOX IMVI): 25.5 µM (inactive) | GI50 (RXF 393): 16.1 µM (inactive) | GI50 (IGROV-1): 20.2 µM (inactive) | GI50 (ACHN): 26.8 µM (inactive) | GI50 (RPMI-8226): 5.04 µM (inactive) | GI50 (786-0): 27.9 µM (inactive) | GI50 (SK-OV-3): > 100 µM (inactive) | GI50 (SN12C): 32.3 µM (inactive) | GI50 (Hs-578T): > 100 µM (inactive) | GI50 (SW-620): 37.1 µM (inactive) | GI50 (SF-295): 12.4 µM (inactive) | GI50 (M14): 33.4 µM (inactive) | GI50 (A549): 0.238 µM (active) | GI50 (HOP-92): 52.6 µM (inactive) | GI50 (SK-MEL-5): 31.1 µM (inactive) | GI50 (MCF7): 4.23 µM (inactive) | GI50 (OVCAR-5): 17.2 µM (inactive) | GI50 (K562): 16.3 µM (inactive) | GI50 (HCC 2998): 10.1 µM (inactive) | GI50 (HT-29): 29.5 µM (inactive) | GI50 (EKVX): 31.9 µM (inactive) | GI50 (KM12): 6.43 µM (inactive) | GI50 (MDA-MB-435): 16.3 µM (inactive) | GI50 (OVCAR-8): 25.6 µM (inactive) | GI50 (NCI/ADR-RES): 27.2 µM (inactive) | GI50 (HOP-62): 23.2 µM (inactive) | GI50 (U-251): 25.1 µM (inactive) | GI50 (HCT-15): 19.5 µM | GI50 (SNB-19): 58.2 µM (inactive) | GI50 (SK-MEL-2): 58.2 µM (inactive) | GI50 (HL-60): 76.4 µM (inactive)
